Test results published in patent publication US20130243867A1, “MICELLE COMPOSITIONS AND METHODS FOR THEIR USE” (University of South Florida (A Florida Non-Profit …, priority 2012, published 2013).

Key:
[1] = In vitro DOX release study (dialysis); format: physicochemical; conditions: 96 hours, either pH
Experimental: An in vitro DOX release study was also performed wherein D-LMNs, M-LMNs, and free DOX were each dispersed in 1 ml PBS buffer containing 1% Tween 20 (pH 7.3 or pH 5.1) and placed in a dialysis membrane (MWCO of 12000-14000 Da), The bag was then immersed in a tube containing 10 mL of the same PBS buffer ([…] or pH 5.1) and incubated at 37° C. At specific time intervals the DOX content in the PBS was analyzed using the UV-VIS spectrophotometer at 485 nm. Samples were all done in triplicate. M-LMNs were used as a blank. The release of the encapsulated DOX from D-LMNs was determined at pH 7.3, which is the physiological pH, and at pH 5.1, which represents the acidic pH inside endosomes, lysosomes, and solid tumors. One percent Tween 20 was used because it forms hydrophobic pockets, which can stabilize the released DOX from the D-LMNs, and helps to avoid aggregation of the hydrophobic DOX in the aqueous environment.

HEK293 cells = conditions: cells incubated with free DOX, literature; cited from earlier work

- DOX released [1]: more than 90%
Structure (SMILES): COc1cccc2c1C(=O)c1c(O)c3c(c(O)c1C2=O)C[C@@](O)(C(=O)CO)C[C@@H]3O[C@H]1C[C@H](N)[C@H](O)[C@H](C)O1.Cl [free DOX, doxorubicin hydrochloride]
- location of DOX in cells (HEK293 cells): found in the nuclei intercalated with DNA
